Data taken from patent publication US20230117034A1, “PYRAZOLOTRIAZINES” (Bayer Aktiengesellschaft, priority 2019, published 2023).

What was measured:
[1] = test system: BRCA1 mRNA expression in MDA-MB-231 cells; test: qRT-PCR assay: BRCA1 mRNA expression in MDA-MB-231; assay type: cell-based, human; settings: Homo sapiens, MDA-MB-231, Inhibition of BRCA1 mRNA expression in MDA-MB-231 cells; median; read-out: RTqPCR-MDA-MB-231, IC50, BRCA1 (median)
Method in brief: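 GAPDH-normalised RT-qPCR measures the transcript after 24 h continuous compound treatment of cells seeded at 200,000/well one day earlier.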

[2] = target: T1, CDK12 (nuclear staining in CAL-120 cells) (Homo sapiens, UniProt Q9NYV4); test: CDK12 nuclear protein level: immunofluorescence/high content analysis (CAL-120); assay type: cell-based; settings: for DC50: CAL-120 cells, 24 h, immunofluorescence, 50% reduction of nuclear CDK12 staining intensity, median, read-out: CDK12 degradation IF, DC50- [mol/l] (median); for (IC50 CDK12 high ATP) to (Degradation DC50 CDK12) ratio: ratio of IC50 CDK12 high ATP kinase assay to DC50 CDK12 degradation (IF, CAL-120)
T1 construct: endogenous in cells; host or cells: CAL-120 human breast cancer cells (DSMZ ACC 459)
T1 sequence (Q9NYV4 whole entry): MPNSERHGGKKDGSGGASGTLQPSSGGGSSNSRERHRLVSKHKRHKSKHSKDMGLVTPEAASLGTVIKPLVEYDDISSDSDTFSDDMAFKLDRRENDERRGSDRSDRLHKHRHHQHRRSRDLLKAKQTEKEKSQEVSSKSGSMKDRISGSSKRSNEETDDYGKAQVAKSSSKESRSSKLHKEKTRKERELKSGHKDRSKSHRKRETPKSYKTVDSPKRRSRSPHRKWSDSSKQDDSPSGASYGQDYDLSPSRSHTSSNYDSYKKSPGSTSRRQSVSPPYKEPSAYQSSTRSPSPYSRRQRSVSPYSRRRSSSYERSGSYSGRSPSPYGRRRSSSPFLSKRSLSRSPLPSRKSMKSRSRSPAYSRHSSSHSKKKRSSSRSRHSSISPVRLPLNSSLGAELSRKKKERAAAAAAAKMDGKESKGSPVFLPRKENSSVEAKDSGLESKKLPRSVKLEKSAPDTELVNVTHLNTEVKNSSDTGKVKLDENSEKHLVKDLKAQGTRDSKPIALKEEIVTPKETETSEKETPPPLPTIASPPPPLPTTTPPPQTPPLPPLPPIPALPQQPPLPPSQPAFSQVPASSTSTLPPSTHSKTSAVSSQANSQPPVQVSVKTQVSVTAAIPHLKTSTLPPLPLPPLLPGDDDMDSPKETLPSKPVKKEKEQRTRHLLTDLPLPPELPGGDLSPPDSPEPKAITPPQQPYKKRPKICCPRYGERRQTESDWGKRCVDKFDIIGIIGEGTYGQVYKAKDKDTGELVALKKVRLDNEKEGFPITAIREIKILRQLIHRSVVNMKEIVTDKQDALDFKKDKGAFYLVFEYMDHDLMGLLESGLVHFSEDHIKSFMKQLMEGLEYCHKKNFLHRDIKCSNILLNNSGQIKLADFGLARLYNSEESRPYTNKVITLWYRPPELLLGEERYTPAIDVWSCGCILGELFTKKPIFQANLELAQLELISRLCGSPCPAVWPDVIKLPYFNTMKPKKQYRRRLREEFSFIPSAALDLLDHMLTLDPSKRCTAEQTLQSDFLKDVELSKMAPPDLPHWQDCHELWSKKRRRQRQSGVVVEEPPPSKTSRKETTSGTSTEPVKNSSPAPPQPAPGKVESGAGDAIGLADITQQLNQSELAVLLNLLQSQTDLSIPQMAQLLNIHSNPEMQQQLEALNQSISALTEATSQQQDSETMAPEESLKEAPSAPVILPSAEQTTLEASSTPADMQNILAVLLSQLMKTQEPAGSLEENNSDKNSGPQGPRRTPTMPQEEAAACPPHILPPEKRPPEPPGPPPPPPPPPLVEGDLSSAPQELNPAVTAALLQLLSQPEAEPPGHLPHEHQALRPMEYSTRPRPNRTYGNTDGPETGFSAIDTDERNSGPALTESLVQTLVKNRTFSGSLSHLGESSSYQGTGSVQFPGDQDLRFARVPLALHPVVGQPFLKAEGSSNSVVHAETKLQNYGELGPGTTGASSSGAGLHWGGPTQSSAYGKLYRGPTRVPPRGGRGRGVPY
T1 sequence (O75909 whole entry partner): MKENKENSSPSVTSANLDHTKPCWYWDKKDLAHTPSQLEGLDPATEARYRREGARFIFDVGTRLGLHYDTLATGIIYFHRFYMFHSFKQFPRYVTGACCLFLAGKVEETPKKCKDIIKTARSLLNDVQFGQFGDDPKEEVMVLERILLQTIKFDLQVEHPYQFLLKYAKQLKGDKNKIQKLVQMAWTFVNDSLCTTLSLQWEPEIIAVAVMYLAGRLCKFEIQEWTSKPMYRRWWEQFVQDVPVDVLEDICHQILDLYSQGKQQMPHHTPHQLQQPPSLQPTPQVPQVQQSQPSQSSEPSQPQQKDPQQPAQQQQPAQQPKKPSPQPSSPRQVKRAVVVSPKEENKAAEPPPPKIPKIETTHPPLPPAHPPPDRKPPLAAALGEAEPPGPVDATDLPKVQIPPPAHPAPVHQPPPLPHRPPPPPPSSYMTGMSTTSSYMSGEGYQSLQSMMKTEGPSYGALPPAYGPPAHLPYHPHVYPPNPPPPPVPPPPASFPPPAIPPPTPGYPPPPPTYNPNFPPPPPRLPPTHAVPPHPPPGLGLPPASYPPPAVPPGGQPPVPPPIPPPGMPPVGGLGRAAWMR
Method in brief: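 CAL-120 cells were treated with compound for 24 h at 37 °C, fixed with PFA and immunostained for CDK12. Nuclear CDK12 intensity was quantified by automated image analysis and normalized to DMSO and control. DC50 is the concentration giving 50% reduction of nuclear staining.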

[3] = target: T2, CDK2/CycE (Homo sapiens, UniProt P24941); test: CDK2/CycE kinase assay (TR-FRET, 2 mM ATP); assay type: biochemical; settings: 2 mM ATP (high ATP); median; read-out: CDK2/CyclinE, 2 mM ATP (high ATP), IC50 (median)
T2 construct: purchased ProQinase GmbH (Freiburg, Germany); host or cells: insect cells (Sf9)
Method in brief: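 GST-tagged human CDK2 and CycE from Sf9 cells, about 10 ng/ml, pre-incubated 15 min at 22 °C with compound in Tris/HCl pH 8.0 buffer. Reaction with 2 mM ATP and 0.75 µM biotinylated peptide for 25 min at 22 °C. Phospho-RB antibody TR-FRET (665/620 nm ratio) read after 1 h; data normalised to no-inhibitor and no-enzyme controls.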

SMILES | IC50 [1] | DC50 [2] | (IC50 CDK12 high ATP) to (Degradation DC50 CDK12) ratio [2] | IC50 [3]
Fc1ccc2[nH]c(CNc3nc(N4CC5CCC(C4)N5)nc4c(Cl)cnn34)nc2c1F.O=CO [Example 360, formic acid 8-chloro-2-(3,8-diazabicyclo[3.2.1]octan-3-yl)-N-[(4,5-difluoro-1H-benzimidazol-2-yl)methyl]pyrazolo[1,5-a][1,3,5]triazin-4-amine] | 1.03 nM | 6.45 nM | 622 | 12100 nM
Fc1cccc2[nH]c(CNc3nc(N4CC5CCC(C4)N5)nc4c(Cl)cnn34)nc12 [Example 363, 8-chloro-2-(3,8-diazabicyclo[3.2.1]octan-3-yl)-N-[(4-fluoro-1H-benzimidazol-2-yl)methyl]pyrazolo[1,5-a][1,3,5]triazin-4-amine] | 22.5 nM | 11.9 nM | 279 | 8610 nM
Brc1cnn2c(NCc3nc4ccccc4[nH]3)nc(N3C[C@H]4CC[C@@H]3CO4)nc12 (single isomer, unassigned) [Example 383, N-[(1H-benzimidazol-2-yl)methyl]-8-bromo-2-{[1R or S-(1R*,4R*)]-2-oxa-5-azabicyclo[2.2.2]octan-5-yl}pyrazolo[1,5-a][1,3,5]triazin-4-amine] | 4.01 nM | 5.79 nM | 859 | 3950 nM
CN1CCN(c2nc(NCc3nc4c(F)c(Cl)ccc4[nH]3)n3ncc(Br)c3n2)CC1 [Example 373, 8-bromo-N-[(5-chloro-4-fluoro-1H-benzimidazol-2-yl)methyl]-2-(4-methylpiperazin-1-yl)pyrazolo[1,5-a][1,3,5]triazin-4-amine] | 1.27 nM | 1.12 nM | 2719 | 7500 nM
Cc1[nH]c(CNc2nc(N3CCOCC3)nc3c(Br)cnn23)nc1-c1ccccc1 [Example 27, 8-bromo-N-[(5-methyl-4-phenyl-1H-imidazol-2-yl)methyl]-2-(morpholin-4-yl)pyrazolo[1,5-a][1,3,5]triazin-4-amine] | 165 nM | 128 nM | 27 | 17100 nM
Brc1cnn2c(NCc3nc4ccccc4[nH]3)nc(N3CCN4CCC3CC4)nc12 [Example 349, N-[(1H-benzimidazol-2-yl)methyl]-8-bromo-2-(1,4-diazabicyclo[3.2.2]nonan-4-yl)pyrazolo[1,5-a][1,3,5]triazin-4-amine] | 15.6 nM | 9.89 nM | 877 | 1820 nM
FC(F)(F)c1ccc2[nH]c(CNc3nc(N4CCOCC4)nc4c(C5CC5)cnn34)nc2c1 [Example 322, 8-cyclopropyl-2-(morpholin-4-yl)-N-{[5-(trifluoromethyl)-1H-benzimidazol-2-yl]methyl}pyrazolo[1,5-a][1,3,5]triazin-4-amine] | 3.56 nM | 4.57 nM | 266 | > 20000 nM
Cc1cc2nc(CNc3nc(N4CCN(C)CC4)nc4c(Br)cnn34)[nH]c2cc1C [Example 342, 8-bromo-N-[(5,6-dimethyl-1H-benzimidazol-2-yl)methyl]-2-(4-methylpiperazin-1-yl)pyrazolo[1,5-a][1,3,5]triazin-4-amine] | 1.27 nM | 2.12 nM | 3129 | 2940 nM
CN(CC(C)(C)O)c1nc(NCc2nc3cc(C(F)(F)F)ccc3[nH]2)n2ncc(Br)c2n1 [Example 345, 1-{[8-bromo-4-({[5-(trifluoromethyl)-1H-benzimidazol-2-yl]methyl}amino)pyrazolo[1,5-a][1,3,5]triazin-2-yl](methyl)amino}-2-methylpropan-2-ol] | 2.83 nM | 3.98 nM | 166 | 6070 nM
CN(c1nc(NCc2nc3ccccc3[nH]2)n2ncc(Br)c2n1)[C@H]1C[C@@H](O)C1 [Example 364, cis-3-[(4-{[(1H-benzimidazol-2-yl)methyl]amino}-8-bromopyrazolo[1,5-a][1,3,5]triazin-2-yl)(methyl)amino]cyclobutan-1-ol] | 9.75 nM | 3.81 nM | 1751 | 2070 nM
Cc1cc2nc(CNc3nc(N4CC5CCC(C4)N5)nc4c(C5CC5)cnn34)[nH]c2cc1C [Example 326, 8-cyclopropyl-2-(3,8-diazabicyclo[3.2.1]octan-3-yl)-N-[(5,6-dimethyl-1H-benzimidazol-2-yl)methyl]pyrazolo[1,5-a][1,5]triazin-4-amine] | 1.63 nM | 4.77 nM | 198 | 4140 nM
CN1CCN(c2nc(NCc3nc4c(F)c(F)ccc4[nH]3)n3ncc(Cl)c3n2)CC1 [Example 358, 8-chloro-N-[(4,5-difluoro-1H-benzimidazol-2-yl)methyl]-2-(4-methylpiperazin-1-yl)pyrazolo[1,5-a][1,3,5]triazin-4-amine] | 3.87 nM | 5.33 nM | 2182 | > 20000 nM
CN(CC(C)(C)O)c1nc(NCc2nc3c(F)c(Cl)ccc3[nH]2)n2ncc(C3CC3)c2n1 [Example 387, 1-[(4-{[(5-chloro-4-fluoro-1H-benzimidazol-2-yl)methyl]amino}-8-cyclopropylpyrazolo[1,5-a][1,3,5]triazin-2-yl)(methyl)amino]-2-methylpropan-2-ol] | 5.56 nM | 3.83 nM | 61 | 5350 nM
FC(F)(F)c1ccc2[nH]c(CNc3nc(N4CCOCC4)nc4c(Br)cnn34)nc2c1 [Example 339, 8-bromo-2-(morpholin-4-yl)-N-{[5-(trifluoromethyl)-1H-benzimidazol-2-yl]methyl}pyrazolo[1,5-a][1,3,5]triazin-4-amine] | 7.85 nM | 7.59 nM | 204 | 6740 nM
Fc1c(Cl)ccc2[nH]c(CNc3nc(N4CCOCC4)nc4c(Br)cnn34)nc12 [Example 372, 8-bromo-N-[(5-chloro-4-fluoro-1H-benzimidazol-2-yl)methyl]-2-(morpholin-4-yl)pyrazolo[1,5-a][1,3,5]triazin-4-amine] | 2.16 nM | 2.44 nM | 110 | 3650 nM
Fc1cccc(-c2nnc(CNc3nc(N4CCOCC4)nc4c(C(F)(F)F)cnn34)[nH]2)c1 [Example 385, N-{[5-(3-fluorophenyl)-4H-1,2,4-triazol-3-yl]methyl}-2-(morpholin-4-yl)-8-(trifluoromethyl)pyrazolo[1,5-a][1,3,5]triazin-4-amine] | 31.6 nM | 9.13 nM | 31 | 1810 nM
CN1CCN(c2nc(NCc3nc4c(F)cccc4[nH]3)n3ncc(Cl)c3n2)CC1.O=CO [Example 362, formic acid 8-chloro-N-[(4-fluoro-1H-benzimidazol-2-yl)methyl]-2-(4-methylpiperazin-1-yl)pyrazolo[1,5-a][1,3,5]triazin-4-amine] | 26.4 nM | 7.85 nM | 1673 | 9310 nM
Cc1ccnc2[nH]c(CNc3nc(N4CCOCC4)nc4c(C(C)C)cnn34)nc12 [Example 28, N-[(7-methyl-3H-imidazo[4,5-b]pyridin-2-yl)methyl]-2-(morpholin-4-yl)-8-(propan-2-yl)pyrazolo[1,5-a][1,3,5]triazin-4-amine] | 13.3 nM | 6.5 nM | 511 | 6020 nM
CN1CCN(c2nc(NCc3nc4cc(Cl)c(Cl)cc4[nH]3)n3ncc(Br)c3n2)CC1 [Example 330, 8-bromo-N-[(5,6-dichloro-1H-benzimidazol-2-yl)methyl]-2-(4-methylpiperazin-1-yl)pyrazolo[1,5-a][1,3,5]triazin-4-amine] | 5.68 nM | 2.89 nM | 1601 | 13800 nM
CN1CCN(c2nc(NCc3nc4cc(F)c(F)cc4[nH]3)n3ncc(Br)c3n2)CC1 [Example 346, 8-bromo-N-[(5,6-difluoro-1H-benzimidazol-2-yl)methyl]-2-(4-methylpiperazin-1-yl)pyrazolo[1,5-a][1,3,5]triazin-4-amine] | 3.02 nM | 2.35 nM | 5220 | > 20000 nM
Clc1cc2nc(CNc3nc(N4CCOCC4)nc4c(Br)cnn34)[nH]c2cc1Cl [Example 329, 8-bromo-N-[(5,6-dichloro-1H-benzimidazol-2-yl)methyl]-2-(morpholin-4-yl)pyrazolo[1,5-a][1,3,5]triazin-4-amine] | 9.23 nM | 7.38 nM | 73 | 9460 nM
